Usually IC50 stands for the point on the concentration scale where inhibition reaches its midpoint.

≈ marks a conversion by molar mass, not a printed value.

Here are results for 41 compounds from patent publication US20040110963A1, “Novel hydrazones” (priority 2001, published 2004).

The target in experiment [1] is enzyme I of the bacterial phosphotransferase system (PTS) (Escherichia coli, UniProt P08839). Put plainly: Assay for Enzyme I dependent PEP: peptide phosphotransferase activity (LDH-coupled, NADH read-out at 340 nm). The experiment is classed as biochemical. As to conditions: enzyme I 0.75 μM, 0.8 mM PEP, pH 7.5; read-out: Inhibition of PTS (IC50 in μM). The source says: The determination of activity of a compound of the present invention in the PTS may be summarized as follows:
Assay for Enzyme I Dependent PEP:
Peptide Phosphotransferase Activity. [formula]
To find inhibitors of Enzyme I of the PTS by high throughput screening, an in vitro assay based on spectrophotometric read out at 340 nm has been set up. The assay comprises of three major components, purified enzyme I in catalytic amounts, Phosphoenol Pyruvate (PEP) as the phosphoryl donor substrate and purified HPr as the phosphoryl acceptor substrate.
The assay couples the formation of pyruvate formed from PEP to lactate, catalyzed by lactate dehydrogenase. The disappearance of NADH, cofactor required by lactate dehydrogenase, is determined spectrophotometerically at 340 nm. The assay is done in a U-shaped microtiter plate format, and quantitation is done using microplate absorbance reader.
100 μl reaction mixture contained 0.8 mM PEP, 0.2 mM NADH, 3 μg lactate dehydrogenase (Boehringer Mannheim), 50 mM KPi pH=7.5, 2.5 mM dithiothreitol, 2.5 mM NaF, 5 mM MgCI2, and between 50 and 100 μM of the compound. The reaction is started by the addition of enzyme I (final concentration 0.75 μM). In a control experiment the compound is replaced by DMSO.

Experiment [2] concerns Escherichia coli DC2. The experiment in a line: In vitro antibacterial activity (MIC, NCCLS M7-A5 dilution susceptibility test). The experiment is classed as cell-based. As to conditions: for MIC: read-out: Minimum Inhibitory Concentration (MIC) Escherichia coli DC2. As for the experimental part:
(§1) Antimicrobial susceptibility testing was performed in accordance with the National Committee for Clinical Laboratory Standards (NCCLS) procedure [M7-A5, 2001: Methods for Dilution Antimicrobial Susceptibility Tests for Bacteria That Grow Aerobically; Approved Standard-Fifth Edition American National Standard].

Experiment [3] concerns Staphylococcus aureus ATCC25923. Described as above. The experiment is classed as cell-based. As to conditions: for MIC: read-out: Minimum Inhibitory Concentration (MIC) Staphylococcus aureus ATCC25923. As for the experimental part:
as §1

For `O=C(NN=Cc1cc(Cl)ccc1O)c1cccc(C(F)(F)F)c1` [Example 21, 3-Trifluoromethyl-N′-(5-chloro-2-hydroxy-benzylidene)-benzohydrazide], the IC50 in experiment [1] came out at 12 µM. For the same compound, the MIC was over 128 µg/mL in experiment [2] and 16 µg/mL (≈ 46.7 µM) in experiment [3].

As for “4-chloro-N′-(2-hydroxy-3-chloro-benzylidene)-benzohydrazide [Example 36]”, the 50% inhibitory concentration (IC50) in experiment [1] came to 100 µM.

For `COc1cccc(C(=O)NN=C(C)c2ccccc2O)c1` [Example 7, 3-Methoxy-N′-[1-(2-hydroxy-phenyl)-ethylidene]-benzohydrazide], the IC50 in experiment [1] is 8 µM.

As to `CC(=NNC(=O)c1ccc(O)cc1)c1cc(O)ccc1O` [Example 35, 4-Hydroxy-N′-[1-(2,5-dihydroxy-phenyl)-ethylidene]-benzohydrazide], in experiment [1], the IC50 turned out to be 1.75 µM.

For the compound `O=C(NN=Cc1cccc(O)c1O)c1ccccc1` [Example 26, N′-(2,3-Dihydroxy-benzylidene)-benzohydrazide], the IC50 in experiment [1] amounted to 50 µM.

Regarding `O=C(NN=Cc1ccc(O)c(O)c1O)c1ccc(Cl)c(Cl)c1` [Example 9, 3,4-Dichloro-N′-(2,3,4-trihydroxy-benzylidene)-benzohydrazide], in experiment [1], the 50% inhibitory concentration (IC50) came to 75 µM. Also, the MIC in experiment [2] turned out to be 32 µg/mL (≈ 93.8 µM); in experiment [3], 8 µg/mL (≈ 23.5 µM).

With `O=C(NN=Cc1cc(O)c(O)cc1O)c1cccc(C(F)(F)F)c1` [Example 50, 3-Trifluoromethyl-N′-(2,4,5-trihydroxy-benzylidene)-benzohydrazide], the MIC was over 128 µg/mL in experiment [2] and 32 µg/mL (≈ 94 µM) in experiment [3].

On to `O=C(NN=Cc1ccccc1O)c1cccc(C(F)(F)F)c1` [Example 32, 3-Trifluoromethyl-N′-(2-hydroxy-benzylidene)-benzohydrazide], for which the IC50 in experiment [1] was 7 µM.

For `Nc1ccc(Cl)cc1C(=O)NN=Cc1ccccc1O` [Example 5, 2-Amino-5-chloro-N′-(2-hydroxy-benzylidene)-benzohydrazide], the half-inhibitory concentration (IC50) in experiment [1] is 6 µM.

As for `CNc1ccccc1C(=O)NN=Cc1cc(Cl)ccc1O` [Example 18, 2-Methylamino-N′-(5-chloro-2-hydroxy-benzylidene)-benzohydrazide], the IC50 in experiment [1] came to 4 µM.

On to `O=C(NN=Cc1cc(O)c(O)cc1O)c1ccc(Cl)cc1` [Example 47, 4-Chloro-N′-(2,4,5-trihydroxy-benzylidene)-benzohydrazide], for which the MIC worked out at 64 µg/mL (≈ 209 µM) in experiment [2] and 8 µg/mL (≈ 26.1 µM) in experiment [3].

As to `COc1cc(C(=O)NN=Cc2cc(Cl)ccc2O)ccc1O` [Example 14, 4-Hydroxy-3-methoxy-N′-(5-chloro-2-hydroxy-benzylidene)-benzohydrazide], the IC50 in experiment [1] is 25 µM. Further, the MIC in experiment [2] and in experiment [3] was 128 µg/mL (≈ 399 µM) in each case.

For `COc1cccc(C(=O)NN=C(C)c2ccccc2N)c1` [Example 25, 3-Methoxy-N′-[1-(2-Amino-phenyl)-ethylidene]-benzohydrazide], in experiment [1], the half-inhibitory concentration (IC50) was 20 µM.

For the compound `O=C(NN=Cc1cc(Cl)cc(Cl)c1O)c1ccccc1` [Example 48, N′-(2-Hydroxy-3,5-dichloro-benzylidene)-benzohydrazide], the values for the MIC in experiment [2] and in experiment [3] were over 128 µg/mL and 128 µg/mL (≈ 414 µM), respectively.

As to `O=C(NN=Cc1cc(O)ccc1O)c1ccc(O)cc1` [Example 11, 4-Hydroxy-N′-(2,5-dihydroxy-benzylidene)-benzohydrazide], the IC50 in experiment [1] was 0.5 µM.

For the compound `CC(=O)Nc1ccccc1C(C)=NNC(=O)c1ccccc1` [Example 23, N-[2-[1-(2-Benzoyl-hydrazono)-ethyl]-phenyl]-acetamide], the IC50 in experiment [1] was 250 µM.

Turning to `O=C(NN=Cc1ccccc1O)c1ccc(Br)cc1` [Example 31, 4-Bromo-N′-(2-hydroxy-benzylidene)-benzohydrazide], the IC50 in experiment [1] was found to be 75 µM.

For `Cc1cccc(C(=O)NN=Cc2cc(Cl)ccc2O)c1` [Example 20, 3-Methyl-N′-(5-chloro-2-hydroxy-benzylidene)-benzohydrazide], the IC50 in experiment [1] came to 4 µM.

Consider `COc1cc(C(=O)NN=Cc2cc(O)ccc2O)ccc1O` [Example 16, N′-(2,5-Dihydroxy-benzylidene)-4-hydroxy-3-methoxy-benzohydrazide], for which, in experiment [1], the IC50 stood at 4 µM.

Turning to `O=C(NN=Cc1cc(Cl)ccc1O)c1cccc(Cl)c1` [Example 38, 3-Chloro-N′-(2-hydroxy-5-chloro-benzylidene)-benzohydrazide], in experiment [1], the IC50 amounted to 75 µM.

As for `Cc1ccc(O)c(C=NNC(=O)c2ccccc2)c1` [Example 17, N′-(2-Hydroxy-5-methyl-benzylidene)-benzohydrazide], the IC50 in experiment [1] was 6 µM.

In the case of `CN(N=Cc1ccc(O)c(O)c1O)C(=O)c1ccc(Cl)c(Cl)c1` [Example 53, 3,4-Dichloro-N-methyl-N′-(2,3,4-trihydroxy-benzylidene)-benzohydrazide], the MIC is over 128 µg/mL in experiment [2] and 128 µg/mL (≈ 360 µM) in experiment [3].

Take `COc1cccc(C(=O)NN=Cc2cc(O)ccc2O)c1` [Example 8, 3-Methoxy-N′-(2,5-dihydroxy-benzylidene)-benzohydrazide]: the IC50 in experiment [1] was found to be 15 µM.

Turning to `CC(=NNC(=O)c1ccccc1)c1cc(O)ccc1O` [Example 15, N′-[1-(2,5-Dihydroxy-phenyl)-ethylidene]-benzohydrazide], the IC50 in experiment [1] amounted to 6 µM.

Regarding `CC(=NNC(=O)c1ccc(Cl)c(Cl)c1)c1ccc(O)c(O)c1O` [Example 52, 3,4-Dichloro-N′-[1-(2,3,4-dihydroxy-phenyl)-ethylidene]-benzohydrazide], in experiment [2], the “Minimum Inhibitory Concentration (MIC) Escherichia coli DC2” value is recorded as 64 micrograms/ml. Moreover, the “Minimum Inhibitory Concentration (MIC) Staphylococcus aureus ATCC25923” value in experiment [3] came to 4 micrograms/ml.

In the case of `COc1cc(C(=O)NN=Cc2ccc(O)c(O)c2O)cc(OC)c1OC` [Example 4, 3,4,5-Trimethoxy-N′-(2,3,4-trihydroxy-benzylidene)-benzohydrazide], in experiment [1], the IC50 was 15 µM. Also, the MIC in experiment [2] and in experiment [3] was 128 µg/mL (≈ 353 µM) throughout.

Turning to `O=C(NN=Cc1cc(O)ccc1O)c1cccc(Cl)c1` [Example 13, 3-Chloro-N′-(2,5-dihydroxy-benzylidene)-benzohydrazide], in experiment [1], the IC50 stood at 0.7 µM.

Turning to `O=C(NN=Cc1cc(O)ccc1O)c1ccc(Cl)cc1` [Example 10, 4-Chloro-N′-(2,5-dihydroxy-benzylidene)-benzohydrazide], the IC50 in experiment [1] was 8 µM. The MIC was over 128 µg/mL in experiment [2] and 128 µg/mL (≈ 440 µM) in experiment [3].

Turning to `O=C(Cc1c[nH]c2ccccc12)NN=Cc1ccccc1O` [Example 2, N′-(2-Hydroxy-benzylidene)-2-(1H-indol-3-yl)-acetohydrazide], in experiment [1], the IC50 was determined as 50 µM.

In the case of `O=C(NN=Cc1ccc(O)c(O)c1O)c1cccc(C(F)(F)F)c1` [Example 51, 3-Trifluoromethyl-N′-(2,3,4-trihydroxy-benzylidene)-benzohydrazide], the MIC came out at 64 µg/mL (≈ 188 µM) in experiment [2] and 8 µg/mL (≈ 23.5 µM) in experiment [3].

Consider `CC(=NNC(=O)c1ccc(Cl)cc1)c1ccccc1N` [Example 24, 4-Chloro-N′-[1-(2-amino-phenyl)-ethylidene]-benzohydrazide], for which the IC50 in experiment [1] is 0.8 µM.

On to `CNc1ccccc1C(=O)NN=Cc1cc(O)ccc1O` [Example 19, 2-Methylamino-N′-(2,5-dihydroxy-benzylidene)-benzohydrazide], for which the IC50 in experiment [1] came out at 2 µM.

`Cc1cccc(C(=O)NN=Cc2cc(O)ccc2O)c1` [Example 33, 3-Methyl-N′-(2,5-dihydroxy-benzylidene)-benzohydrazide]: in experiment [1], the 50% inhibitory concentration (IC50) is 2 µM.

For the compound `O=C(NN=Cc1ccc(O)c(O)c1O)c1cccc(Cl)c1` [Example 49, 3-Chloro-N′-(2,3,4-trihydroxy-benzylidene)-benzohydrazide], the results for the MIC in experiment [2] and in experiment [3] were 64 µg/mL (≈ 209 µM) and 16 µg/mL (≈ 52.2 µM), respectively.

`O=C(NN=Cc1ccc(O)c(O)c1O)c1ccccc1` [Example 28, N′-(2,3,4-Trihydroxy-benzylidene)-benzohydrazide]: the IC50 in experiment [1] was 3 µM.

As for `O=C(NN=Cc1ccc(O)cc1O)c1ccc(Cl)cc1` [Example 37, 4-Chloro-N′-(2,4-dihydroxy-benzylidene)-benzohydrazide], the IC50 in experiment [1] came to 20 µM.

As to `O=C(NN=Cc1cc(O)ccc1O)c1cccc(C(F)(F)F)c1` [Example 34, 3-Trifluoromethyl-N′-(2,5-dihydroxy-benzylidene)-benzohydrazide], the IC50 in experiment [1] worked out at 15 µM.

With `COc1cccc(C(=O)NN=Cc2ccccc2O)c1` [Example 27, 3-Methoxy-N′-(2-hydroxy-benzylidene)-benzohydrazide], in experiment [1], the IC50 amounted to 7 µM.

On to `CNc1ccccc1C(=O)NN=C(C)c1ccccc1O` [Example 22, 2-methylamino-N′-[1-(2-hydroxy-phenyl)-ethylidene]-benzohydrazide], for which the IC50 in experiment [1] is 2 µM.

As to `O=C(NN=Cc1cc(O)ccc1O)c1ccc(Cl)c(Cl)c1` [Example 12, 3,4-Dichloro-N′-(2,5-dihydroxy-benzylidene)-benzohydrazide], in experiment [1], the IC50 is 0.7 µM.

As to `O=C(NN=Cc1cc(O)ccc1O)c1cccc2ccccc12` [Example 3, N′-(2,5-Dihydroxy-benzylidene)-naphthalene-1-carbohydrazide], the IC50 in experiment [1] was 6 µM.
